Series [1] can be described thus: Crossover PK of tablet vs methylcellulose suspension in beagle dogs (Example 15). As to conditions: for Cmax / AUC(0-t) / Tmax: both sexes, dog, serum, po; for Cmax / AUC(0-t): beagle, both sexes combined; for AUC(0-t): read-out: average AUClast. It is filed as in vivo, beagle dog. The protocol: The objective of this study was to determine and compare the pharmacokinetic parameters of grapiprant in beagle dogs after single oral administration of a flavored tablet formulation and a methylcellulose suspension formulation at nominal doses of 6 mg/kg and 50 mg/kg. For this study, sixteen beagle dogs, […], were divided into two groups based on the nominal doses of grapiprant, either 6 mg/kg in Groups 3AB or 50 mg/kg in Groups 4A/B. Each group was given the appropriate oral dose in a tablet or in a methylcellulose formulation, using the crossover design as shown below at Table 19, on study Days 0 and 15. Blood samples were collected and serum was prepared, frozen, and analyzed for concentration of grapiprant.
The vehicle was 0.5% methylcellulose (400 centipoise) in water. About half a volume of distilled water was heated to about 40-50° C. Methylcellulose was weighed to give a final concentration of 0.5% (w/v), and dissolved in the heated distilled water with stirring. The flask with the methylcellulose solution was cooled immediately. The remaining distilled water was added into the flask to adjust volume. The final solution was stirred for least 30 minutes.
To prepare 1.2-mg/mL and 10-mg/mL suspensions grapiprant in the vehicle, an appropriate amount of grapiprant was added to a calibrated beaker containing 0.5% aqueous methylcellulose, and mixed using a vortex. The suspension was homogenized using a Polytron™ mixer with attached antifoam bit. A stir bar was added to the beaker, and the suspension was stirred for about 5 minutes. The stir bar was removed temporarily to adjust the volume, and the suspension was stirred for another 5 minutes before it was transferred to a labeled amber dosing container or glass beaker wrapped with foil.
The dosing suspension was prepared fresh on each day of dosing. A vortex depth of between 75% and 100% of the depth of the container containing the 500-mg suspension was achieved on both dosing days. […] Dose formulation samples were transported to the animal room before collection and were collected (while the formulations were being stirred) just before dosing the first animal of each group, and just before dosing the last animal of each group. These steps guard against the 500-mg suspension settling during transport from the formulation laboratory to the animal room.

In series [2] the target is dog EP4 receptors (Canis lupus familiaris, UniProt A0A8I3MI92). As to conditions: dog EP4 receptor; read-out: Ki, inhibition of [3H]PGE binding; cited from earlier work.
dog EP4 receptors, sequence (A0A8I3MI92 1-492): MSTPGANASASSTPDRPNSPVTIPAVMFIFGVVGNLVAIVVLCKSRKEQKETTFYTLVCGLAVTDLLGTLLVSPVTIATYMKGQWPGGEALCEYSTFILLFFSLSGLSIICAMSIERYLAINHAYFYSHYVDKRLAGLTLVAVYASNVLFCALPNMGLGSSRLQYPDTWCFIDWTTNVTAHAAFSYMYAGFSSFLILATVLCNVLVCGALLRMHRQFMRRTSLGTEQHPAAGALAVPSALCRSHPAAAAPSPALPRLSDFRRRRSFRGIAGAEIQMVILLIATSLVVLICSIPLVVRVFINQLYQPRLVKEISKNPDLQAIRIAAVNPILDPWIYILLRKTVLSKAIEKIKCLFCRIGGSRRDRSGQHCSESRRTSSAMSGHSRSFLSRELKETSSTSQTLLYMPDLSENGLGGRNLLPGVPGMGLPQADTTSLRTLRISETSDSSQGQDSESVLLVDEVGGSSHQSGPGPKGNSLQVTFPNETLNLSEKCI
Series [3] concerns onychectomy in cats. In words: Onychectomy pain model in cats (Example 5). The format is in vivo, cat. The following applies: vs placebo. The text has this: The objective of this pilot study was to validate that this model/pain scoring system can differentiate positive from negative control animals in controlling the pain and inflammation of onychectomy and to test the effectiveness of a single dose of grapiprant in controlling the pain and inflammation associated with onychectomy in cats.
Following an acclimation period of 7, 8, or 9 days, a total of 30 adult cats were randomly divided between three treatment groups with ten animals assigned to each group. All animals were randomly assigned to a given surgery day such that within each day, an equal number of cats was from each treatment group. Within each day, the order of surgery was also randomized. […]
Surgical Procedure. […] During surgical procedures, each animal was monitored for at least heart rate and respiratory rate. […] Following surgery, each animal was periodically monitored until full recovery. […] Extubation time (time zero=T0) was recorded as the end of surgery.
All study animals were scored for sedation and analgesia the following schedule in Table 10. […]
Analgesia scores were given at specified time points during the study. […] Analgesia was scored by the same assessor during the first 8 hours of the study. […]
Results. The cat was evaluated as the experimental unit. Differences between treatment groups were evaluated at alpha of 0.05. […]

Setting [4] is: 60 mg, beagle dogs, Day 0, 60-mg suspension.
Setting [5] is: 60 mg, beagle dogs, Day 0, 60-mg tablet.
Where [6] appears, read: 60 mg, beagle dogs, Day 15, 60-mg suspension.
Setting [7] is: 60 mg, beagle dogs, Day 15, 60-mg tablet.
Setting [8] is: 500 mg, beagle dogs, Day 0, 500-mg suspension.
Setting [9] is: 500 mg, beagle dogs, Day 0, 500-mg tablet.
Where [10] appears, read: 500 mg, beagle dogs, Day 15, 500-mg suspension.
[11] abbreviates: 500 mg, beagle dogs, Day 15, 500-mg tablet.

The text below walks through data of patent publication US12109218B2, “Compositions of grapiprant and methods for using the same” (ARATANA THERAPEUTICS, INC., priority 2014, dated 2024).

Each structure is given as a SMILES string. Where two headings read alike, the source gives them in different places.

Consider `CCc1nc2c(C)nc(C)cc2n1-c1ccc(CCNC(=O)NS(=O)(=O)c2ccc(C)cc2)cc1` [grapiprant, N-{2-[4-(2-ethyl-4,6-dimethyl-1H-imidazo[4,5-c]pyridin-1-yl)phenyl]ethyl}-N′-[(4-methylphenyl)sulfonyl]urea], for which the fecal abnormalities result in series [1] (beagle dogs, single oral 60 mg or 500 mg) is on record as “Slight increases in the incidence of fecal abnormalities”. Moreover, the “relative bioavailability ratio (tablet/suspension)” value in series [1] (both dose levels, both trials) is on record as “greater than 100”. For the same compound, the peak concentration (Cmax) was 4050 ng/mL in series [1] (setting [4]); 5330 ng/mL in series [1] (setting [5]); 3810 ng/mL in series [1] (setting [6]); 6110 ng/mL in series [1] (setting [7]); 76800 ng/mL in series [1] (setting [8]); 96100 ng/mL in series [1] (setting [9]). In addition, the results for the Cmax in series [1] (setting [10]) and in series [1] (setting [11]) were 74200 ng/mL and 101000 ng/mL, respectively. Also, the AUC(0-t) in series [1] (setting [4]) came to 14.5 µg·h/mL; in series [1] (setting [5]), 19.6 µg·h/mL; in series [1] (setting [6]), 12.5 µg·h/mL; in series [1] (setting [7]), 17.4 µg·h/mL; in series [1] (setting [8]) it was 293 µg·h/mL; in series [1] (setting [9]), 455 µg·h/mL. For the same compound, the AUC(0-t) worked out at 209 µg·h/mL in series [1] (setting [10]) and 430 µg·h/mL in series [1] (setting [11]). The Tmax in series [1] (beagle dogs, Day 0, 60-mg methylcellulose suspension) stood at 1 h; in series [1] (beagle dogs, Day 15, 500-mg suspension), 1 h. For the same compound, the Ki in series [2] is 24.1 ± 2.7 nM. Further, in series [3] (20 mg tablet Formulation A34 about 30 minutes before onychectomy), the sedation scores result was “without an apparent effect on sedation scores”. Besides, the analgesia scores entry in series [3] (oral tablet about 30 minutes before onychectomy (grapiprant: 20 mg tablet Formulation A34, Day 0 only; Onsior: 6 mg, Days 0-2)) is on record as “decreased analgesia scores (reduced pain)”.

In general, Cmax refers to the maximum level reached in the sampled fluid or tissue. As a reminder, the Tmax is the time from dosing to the highest level. As a reminder, the Ki is the dissociation constant of the complex between target and ligand, obtained from inhibition or displacement.
